Results as given in patent US20260124281A1, “FORMULATIONS COMPRISING ACID-NEUTRALIZING POLYMER FOR ORAL ADMINISTRATION OF PARATHYROID HORMONE” (Entera Bio Ltd., priority 2022, published 2026).

Assays:
pepsin = assay: Proteolysis of hPTH(1-34) by pepsin at various pH values; assay type: in vitro ADME; conditions: 13.5 μg/ml hPTH(1-34), 150 μg/ml pepsin, 37° C., media pH 2-7
Experimental: The effect of pH on peptide proteolysis by pepsin was determined by incubating 13.5 μg/ml human parathyroid hormone (1-34) (hPTH(1-34)) with 150 μg/ml pepsin, at various pH values, and determining the percentage of hPTH(1-34) which remained. The amount of hPTH(1-34) remaining upon addition to 150 μg/ml pepsin at 37° C., was determined in media with different pH values, followed by immediate (10 second) vortex and centrifugation for 3 minutes at 4° C., 4000 RCF. The following media were used: simulated gastric fluid (pH 2), prepared from 0.01 M HCl and NaCl; phthalate buffer (pH 4 or 5); and phosphate buffer (pH 6 or 7).

[1] = pH upon addition of test substance to 0.1 M HCl solution (pH 1.2), pH meter; assay type: physicochemical
Experimental: The solution pH was determined using an MP-103 pH-meter (MRC, Israel) equipped with ELC-10-00 electrode (MRC, Israel) or with a thin electrode HI1083 (HANNA instruments Inc.), shortly after dissolution and up to 26 hours later in order to ensure that the pH remained stable. The highest pH value obtained during the experimental time period was recorded in order to compare the acid-neutralizing capacity of each substance.
SNAC and the basic polymers sodium alginate, sodium carboxymethylcellulose in non-crosslinked (Na-CMC) and crosslinked (croscarmellose sodium, CCS) forms, and sodium starch glycolate (SSG) were dissolved in various volumes of 0.1 M HCl solution (pH 1.2) at concentrations of 1, 2, 4, 10, 20, 50, 100 and 150 mg/ml, and the solution pH was determined using an MP-103 pH-meter (MRC, Israel) equipped with ELC-10-00 electrode (MRC, Israel), as described in the Materials and Methods section hereinabove.
In order to obtain a beneficial rise in pH with a reduced loss of the active form of the absorption enhancer, the effect of various concentrations of different polymers containing carboxylate groups (sodium alginate, sodium starch glycolate, sodium carboxymethylcellulose, and croscarmellose sodium) on pH upon addition to a 0.1 M HCl solution (pH 1.2) was also evaluated. FIG. 3A presents pH values determined using an MP-103 pH-meter (MRC, Israel) equipped with ELC-10-00 electrode (MRC, Israel) and FIG. 3B presents pH values determined using an MP-103 pH-meter (MRC, Israel) equipped with a thin electrode HI1083 (HANNA instruments Inc.).

Row | SMILES | pH at which proteolysis of hPTH(1-34) by pepsin was inhibited (pepsin) | pH 5 minutes after dissolution ([1]; 10 mg/ml SNAC added to HCl solution (pH 1.2)) | pH 5 minutes after dissolution ([1]; 20 mg/ml SNAC added to HCl solution (pH 1.2)) | pH 5 minutes after dissolution ([1]; 100 mg/ml SNAC added to HCl solution (pH 1.2)) | dissolution upon addition to HCl solution ([1]; HCl solution (pH 1.2))
1 | CC[C@H](C)[C@H](NC(=O)[C@H](CCC(=O)O)NC(=O)[C@H](CO)NC(=O)[C@@H](NC(=O)[C@@H](N)CO)C(C)C)C(=O)N[C@@H](CCC(N)=O)C(=O)N[C@@H](CC(C)C)C(=O)N[C@@H](CCSC)C(=O)N[C@@H](Cc1cnc[nH]1)C(=O)N[C@@H](CC(N)=O)C(=O)N[C@@H](CC(C)C)C(=O)NCC(=O)N[C@@H](CCCCN)C(=O)N[C@@H](Cc1cnc[nH]1)C(=O)N[C@@H](CC(C)C)C(=O)N[C@@H](CC(N)=O)C(=O)N[C@@H](CO)C(=O)N[C@@H](CCSC)C(=O)N[C@@H](CCC(=O)O)C(=O)N[C@@H](CCCN=C(N)N)C(=O)N[C@H](C(=O)N[C@@H](CCC(=O)O)C(=O)N[C@@H](Cc1c[nH]c2ccccc12)C(=O)N[C@@H](CC(C)C)C(=O)N[C@@H](CCCN=C(N)N)C(=O)N[C@@H](CCCCN)C(=O)N[C@@H](CCCCN)C(=O)N[C@@H](CC(C)C)C(=O)N[C@@H](CCC(N)=O)C(=O)N[C@@H](CC(=O)O)C(=O)N[C@H](C(=O)N[C@@H](Cc1cnc[nH]1)C(=O)N[C@@H](CC(N)=O)C(=O)N[C@@H](Cc1ccccc1)C(=O)O)C(C)C)C(C)C [hPTH(1-34), teriparatide] | ≥ 6 |  |  |  | 
2 | O=C(O)CCCCCCCNC(=O)c1ccccc1O [SNAC, sodium 8-N-(2-hydroxybenzoyl)aminocaprylate] |  | about 1.5 | 6.5 | about 7.5 | dissolved rapidly
